Experimental data: patent US7208314B2, “Compositions and methods for drug delivery using pH sensitive molecules” (priority 2002, dated 2007)
Where two headings read alike, the source gives them in different places. Peptide text beside a SMILES is read from it. * marks the point of attachment. X1 = C/C(C(=O)O)=C(\C)C(=O)*

Tests used:
[1] = Hemolysis assay: melittin or KL3 blocked by anionic polymer or dimethylmaleic anhydride; assay type: cell-based; conditions: pH 7.5, read-out: Percent hemolysis
Description: The membrane-disruptive activity of the peptide melittin and subsequent blocking of activity by anionic polymers was measured using a red blood cell (RBC) hemolysis assay. RBCs were harvested by centrifuging whole blood for 4 min. They were washed three times with 100 mM dibasic sodium phosphate at the desired pH, and resuspended in the same buffer to yield the initial volume. They were diluted 10 times in the same buffer, and 200 uL of this suspension was used for each tube. This yields 10 ? 8 RBCs per tube. Each tube contained 800 uL of buffer, 200 uL of the RBC suspension, and the peptide with or without polymer. Each sample was then repeated to verify reproducibility. The tubes were incubated for 30 minutes in a 37 C water bath. They were spun for 5 min at full speed in the microcentifuge. Lysis was determined by measuring the absorbance of the supernatant at 541 nm, reflecting the amount of hemoglobin that had been released into the supernatant. Percent hemolysis was calculated assuming 100% lysis to be measured by the hemoglobin released by the red blood cells in water; controls of RBCs in buffer with no peptide were also run.

[2] = tested on: 3T3 mouse embryonic fibroblast cells; experiment: In vitro transfection with DNA-PLL complexes with dimethylmaleamic KL3 and dimethylmaleamic KL3-PLL; assay type: cell-based; conditions: pCIluc DNA/poly-L-lysine complex plus 10 mg modified peptide; opti-MEM 4 h; 48 h
Description: To a complex of plasmid DNA pCIluc (10 μg/mL, prepared according to Danko, I., Williams, P., Herweijer, H. Zhang, G., Latendresse, J. S., Bock, I., Wolff, J. A. Hum. Mol. Genetics 1997, 6, 1435.) and poly-L-lysine (40 μg/mL) in 0.5 mL water was added 10 mg of 2,3-dimethylmaleamic -KL3-PLL or 2,3-dimethylmaleamic -KL3. The DNA-poly-L-lysine-2,3-dimethylmaleamic peptide complexes were then added (200 μL) to a well containing 3T3 mouse embryonic fibroblast cells in opti-MEM. After 4 h, the media was replaced with 90% Dubelco's modified Eagle Media and 10% fetal bovine serum the cells were then allowed to incubate for 48 h. The cells were then harvested and then assayed for luciferase expression as previously reported (Wolff, J. A., Malone, R. W., Williams, P., Chong, W., Acsadi, G., Jani, A. and Felgner, P. L. Direct gene transfer into mouse muscle in vivo. Science, 1465–1468, 1990.). A Lumat LB 9507 (EG&G Berthold, Bad-Wildbad, Germany) luminometer was used. The amount of transfection was reported in relative light units and is the average transfection for two separate wells of cells.

[3] = tested on: 3T3 mouse embryonic fibroblast cells; experiment: In vitro transfection with DNA-PLL-KL3 and dimethylmaleamic KL3, luciferase expression; assay type: cell-based
Description: To a complex of plasmid DNA pCIluc (10 μg/mL, 0.075 mM in phosphate, 2.6 μg/μL pCIluc; prepared according to Danko, I., Williams, P., Herweijer, H. Zhang, G., Latendresse, J. S., Bock, I., Wolff, J. A. Hum. Mol. Genetics 1997, 6, 1435.) and poly-L-lysine (40 μg/mL) in 0.5 mL of 5 mM HEPES pH 7.5 was added succinylated poly-L-lysine (34,000 MW, Aldrich Chemical), 2,3-dimethylmaleamic melittin and 2,3-dimethylmaleamic KL3. The DNA-poly-L-lysine-2,3-dimethylmaleamic peptide complexes were then added (200 μL) to wells containing 3T3 mouse embryonic fibroblast cells in 290 mM glucose and 5 mM HEPES buffer pH 7.5. After 1.5 h, the glucose media was replaced with Dubelco's modified Eagle Media and the cells were allowed to incubate for 48 h. The cells were then harvested and then assayed for luciferase expression as previously reported (Wolff, J. A., Malone, R. W., Williams, P., Chong, W., Acsadi, G., Jani, A. and Felgner, P. L. Direct gene transfer into mouse muscle in vivo. Science, 1465–1468, 1990.). A Lumat LB 9507 (EG&G Berthold, Bad-Wildbad, Germany) luminometer was used. The amount of transfection was reported in relative light units and is the average transfection for two separate wells of cells.

[4] = Kinetics of conversion of dimethylmaleamic modified amines to amines at pH 5 (trinitrobenzenesulfonate); assay type: physicochemical; conditions: 40 mM sodium acetate buffer pH 5 and 1 mM cetyltrimetylammonium bromide
Description: Dimethyl maleamic modified poly-L-lysine (10 mg/mL) was incubated in 10 mM sodium acetate buffer pH 5. At various times, aliquots (10 μg) were removed and added to 0.5 mL of 100 mM borax solution containing 0.4 mM trinitrobenzenesulfonate. A half an hour later, the absorbance of the solution at 420 nm was measured. To determine the concentration of amines at each time point, the extinction coefficient was determine for the product of trinitrobenzenesulfonate and poly-L-lysine. Using this extinction coefficient we were able to calculate the amount of amines and maleamic groups at each time point. A plot of ln (At/A0) as a function of time was a straight line whose slope is the negative of the rate constant for the conversion of maleamic acid to amine and anhydride, where At is the concentration of maleamic acid at a time t and A0 is the initial concentration of maleamic acid. For two separate experiments we calculated rate constants of […] which correspond to half lives of roughly 10 and 4 minutes respectively.
Dimethyl maleamic modified KL3 (0.1 mg/mL) was incubated in 40 mM sodium acetate buffer pH 5 and 1 mM cetyltrimetylammonium bromide. At various times, aliquots (10 μg) were removed and added to 0.05 mL of 1 M borax solution containing 4 mM trinitrobenzenesulfonate. A half an hour later, the absorbance of the solution at 420 nm was measured. […]

With `C/C(C(=O)O)=C(\C)C(=O)NCCCC[C@H](NC(=O)/C(C)=C(/C)C(=O)O)C(=O)N[C@@H](CC(C)C)C(=O)N[C@@H](CC(C)C)C(=O)N[C@@H](CCCCNC(=O)/C(C)=C(/C)C(=O)O)C(=O)N[C@@H](CC(C)C)C(=O)N[C@@H](CC(C)C)C(=O)N[C@@H](CC(C)C)C(=O)N[C@@H](CCCCNC(=O)/C(C)=C(/C)C(=O)O)C(=O)N[C@@H](CC(C)C)C(=O)N[C@@H](Cc1c[nH]c2ccccc12)C(=O)N[C@@H](CC(C)C)C(=O)N[C@@H](CCCCNC(=O)/C(C)=C(/C)C(=O)O)C(=O)N[C@@H](CC(C)C)C(=O)N[C@@H](CC(C)C)C(=O)N[C@@H](CCCCNC(=O)/C(C)=C(/C)C(=O)O)C(=O)N[C@@H](CC(C)C)C(=O)N[C@@H](CC(C)C)C(=O)N[C@@H](CC(C)C)C(=O)N[C@@H](CCCCNC(=O)/C(C)=C(/C)C(=O)O)C(=O)N[C@@H](CC(C)C)C(=O)N[C@@H](CC(C)C)C(=O)O` [2,3-dimethylmaleamic KL3] (X1-K(X1)LLK(X1)LLLK(X1)LWLK(X1)LLK(X1)LLLK(X1)LL-OH; N-terminus and C-terminus assumed) the hemolysis ([1]; 30 minutes, 37 C) was 4%, the hemolysis ([1]; post incubation at pH 5.4 30 seconds) was 85% and the “Relative Light Units (luciferase expression)” value [2] was 20927 Relative Light Units. The “Relative Light Units (luciferase expression)” value ([3]; pCIluc DNA/poly-L-lysine complex plus named additive, 48 h, average of two wells) was 49535 Relative Light Units, the “Relative Light Units relative to Succinylated poly-L-lysine” value ([3]; value in parentheses) was 7.7 and the “rate constant for the conversion of maleamic acid to amine and anhydride” value [4] was 0.087 s⁻¹.
